The values that follow come from patent US20250017849A1 (ETH ZURICH, priority 2021, published 2025).

The test system of series [1] is porcine buccal mucosa. Kind of series: ex vivo effect of hypobaric pressure on diffusion of marker molecule in porcine buccal mucosa. The note with it: 54 μg Cy5, 2.1 mg C10, 1.2 mg PVA, pressure set to 30 kPa, 37° C., 3 h. The series is classed as in vitro ADME. The procedure:
The device could continuously monitor and control the pressure inside the patch to a constant value, e.g., 30 kPa. For the application, the buccal tissue was prepared as described above and placed in a 6-well plate that is filled with DMEM buffer. […] Subsequently, the pressure was set by the reduction valve to 30 kPa and left in the 37° C. incubators for 3 h. Afterwards, the vacuum pump was turned off and the mucosal suction patches were detached. The tissue specimen was processed as described before for fluorescent imaging. The intensity of each image was converted to the equivalent of 150 ms exposure time to allow the comparability. When plotting the fluorescent intensity-distance profile, the absolute intensity was utilized instead of the normalized in order to compare the pressure-related permeation enhancing effects among different samples.

Series [2] in a line: pharmacokinetic study of semaglutide mucosal suction patch in beagle dogs. Format: in vivo. Conditions: patch with 9 mg semaglutide, 1.2 mg PVA, 11.7 mg NaTaC. The method, then: Briefly, an aliquot of 900 μL dog plasma sample was mixed with 10 μL internal standard (Goserelin; 25 ng/mL) and 300 μL 4% H3PO4 acidified water into 1.5 mL Eppendorf tubes. The plasma sample was then extracted using Oasis™ WAX solid-phase extraction cartridges.
The drug plasma concentration was evaluated using an LC-MS/MS method as described in Example 11.

For series [3] the following is noted: dog, in vivo. The method, then:
As a control formulation, enteric-coated (Eudragit® L100-55, Essen, Germany) capsules containing commercial Minirin® drug tablets (6 pieces containing 1.2 mg desmopressin in total) was given orally to the dog.
A 3D printed clamp containing a cavity for the suction patch containing 1.2 mg desmopressin, 1.2 mg PVA, and 5.7 mg NaTaC was attached to the dog's mucosa, ensuring similar conditions (i.e., enclosed environment, close contact to the mucosa, same sample preparation and loading) as the applied suction patch, but […] and without negative pressure and the resulting tissue deformation.
The dogs were anesthetized for the duration of the experiment (3 h). […] Blood samples were collected in K2EDTA tubes immediately followed by centrifugation at 1700 G for 10 min at 4° C. Subsequently, the plasma was stored in clear polypropylene vials at −80° C. until further analysis. The drug plasma concentration was evaluated using LC-MS/MS method. Briefly, an aliquot of 900 μL dog plasma sample was mixed with 10 μL internal standard (Goserelin; 25 ng/mL) and 300 μL 4% H3PO4 acidified water into 1.5 mL Eppendorf tubes. The plasma sample was then extracted using Oasis™ WAX solid-phase extraction cartridges. […] Samples were analyzed in TOF-MRM mode with a quantification limit of […]. […]

For series [4] the following is noted: oral formulation, even in the presence of permeation enhancers; cited from earlier work.
Series [5] relates to porcine buccal mucosa. The series can be described thus: ex vivo permeation of surrogates through porcine buccal mucosa with mucosal suction patch. The series is classed as in vitro ADME. Conditions: patch with surrogate, 1.2 mg PVA, 5.7 mg NaTaC, 3 h. The procedure: Specimen were permeabilized with a 0.5% Trition™ X100 PBS buffered solution for 15 min, washed for 3 min in PBS and incubated with a PBS buffered solution of 0.1% iFluor™ 488-conjugated phalloidin (F-Actin stain) and 0.1% Hoechst 33342 (Nucleous stain) for 30 min.
Fluorescence images were obtained with a widefield microscope (Leica DMI 6000) at 20× magnification in the tile scan mode and merged to a single image. The specimen was excited at 590-650 nm and the emission filtered from 662-738 nm. To evaluate the penetration depth of the surrogate, images were processed as grayscale with Fiji-ImageJ™ software. Line profiles of the grayscale intensity were obtained by drawing multiple straight lines vertical to the surface of the mucosa lining. The obtained intensity-distance profiles were transferred to Microsoft Excel™ and MatLab™ for further processing. The autofluorescence was first corrected by subtracting the averaged baseline intensity multiplied by 3 times its standard deviation obtained from a lower laying region of the tissue. The maximum intensity was set to 100% and the corresponding distance value was set to zero to normalize the drug distribution profile. […]
The molecular weight range of administrable drugs was evaluated ex-vivo on porcine buccal mucosa tissue by applying drug surrogates with different molecular weights. […]

Turning to Cy5, the “effect of negative pressure on drug permeation” value in series [1] is “effectively enhanced the drug permeation”.

In the case of `CC[C@H](C)[C@H](NC(=O)[C@H](Cc1ccccc1)NC(=O)[C@H](CCC(=O)O)NC(=O)[C@H](CCCCNC(=O)COCCOCCNC(=O)COCCOCCNC(=O)CC[C@H](NC(=O)CCCCCCCCCCCCCCCCC(=O)O)C(=O)O)NC(=O)[C@H](C)NC(=O)[C@H](C)NC(=O)[C@H](CCC(N)=O)NC(=O)CNC(=O)[C@H](CCC(=O)O)NC(=O)[C@H](CC(C)C)NC(=O)[C@H](Cc1ccc(O)cc1)NC(=O)[C@H](CO)NC(=O)[C@H](CO)NC(=O)[C@@H](NC(=O)[C@H](CC(=O)O)NC(=O)[C@H](CO)NC(=O)[C@@H](NC(=O)[C@H](Cc1ccccc1)NC(=O)[C@@H](NC(=O)CNC(=O)[C@H](CCC(=O)O)NC(=O)C(C)(C)NC(=O)[C@@H](N)Cc1cnc[nH]1)[C@@H](C)O)[C@@H](C)O)C(C)C)C(=O)N[C@@H](C)C(=O)N[C@@H](Cc1c[nH]c2ccccc12)C(=O)N[C@@H](CC(C)C)C(=O)N[C@H](C(=O)N[C@@H](CCCNC(=N)N)C(=O)NCC(=O)N[C@@H](CCCNC(=N)N)C(=O)NCC(=O)O)C(C)C` [semaglutide], the plasma concentrations entry in series [2] is reported as “therapeutic relevant plasma concentrations”.

Take `NC(=O)CC[C@@H]1NC(=O)[C@H](Cc2ccccc2)NC(=O)[C@H](Cc2ccc(O)cc2)NC(=O)CCSSC[C@@H](C(=O)N2CCC[C@H]2C(=O)N[C@H](CCCN=C(N)N)C(=O)NCC(N)=O)NC(=O)[C@H](CC(N)=O)NC1=O` [desmopressin]: the “bioavailability higher than commercial tablets” value in series [3] is 35%.

Regarding octreotride, the oral bioavailability in series [4] is on record as 0.5-1%.

B1: Alexa647-Ovalbumin: Alexa647 dye linked to ovalbumin (≈5.5 nm, 45 kDa) (conjugate, UniProt P01012 2-386, looked up)
Ovalbumin: GSIGAASMEFCFDVFKELKVHHANENIFYCPIAIMSALAMVYLGAKDSTRTQINKVVRFDKLPGFGDSIEAQCGTSVNVHSSLRDILNQITKPNDVYSFSLASRLYAEERYPILPEYLQCVKELYRGGLEPINFQTAADQARELINSWVESQTNGIIRNVLQPSSVDSQTAMVLVNAIVFKGLWEKAFKDEDTQAMPFRVTEQESKPVQMMYQIGLFRVASMASEKMKILELPFASGTMSMLVLLPDEVSGLEQLESIINFEKLTEWTSSNVMEERKIKVYLPRMKMEEKYNLTSVLMAMGITDVFSSSANLSGISSAESLKISQAVHAAHAEINEAGREVVGSAEAGVDAASVSEEFRADHPFLFCIKHIATNAVLFFGRCVSP
modifications: Alexa647 dye
As for B1, the “crossing of the mucosal epithelium” value in series [5] was “reach deep inside”.
